Data taken from ChEMBL document CHEMBL1201862, “PubChem BioAssay data set” (2004).
Active and inactive are the calls of the source.

Key:
[1] = target: T1, Neuropeptide Y receptor type 1 (Homo sapiens, UniProt P25929); format: functional;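 note: HEK293 cells with a CNG channel challenged with NPY then isoproterenol; potency as antagonist that reverses NPY suppression of cAMP signal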
T1 sequence (P25929 whole entry): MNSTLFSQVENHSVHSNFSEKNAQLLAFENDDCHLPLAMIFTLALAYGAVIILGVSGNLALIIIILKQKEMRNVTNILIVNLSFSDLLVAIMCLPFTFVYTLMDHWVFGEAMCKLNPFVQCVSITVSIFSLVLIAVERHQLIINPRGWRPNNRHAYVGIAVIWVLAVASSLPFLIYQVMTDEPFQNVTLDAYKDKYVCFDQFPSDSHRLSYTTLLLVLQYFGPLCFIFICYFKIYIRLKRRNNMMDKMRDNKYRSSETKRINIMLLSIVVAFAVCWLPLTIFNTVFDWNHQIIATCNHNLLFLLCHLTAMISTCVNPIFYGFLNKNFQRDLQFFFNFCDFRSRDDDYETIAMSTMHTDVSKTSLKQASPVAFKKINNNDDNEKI

[2] = target: T2, Neuropeptide Y receptor type 2 (Homo sapiens, UniProt P49146); format: functional, cell-based;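 note: HEK293 cells expressing the receptor and a CNG channel; stimulus was NPY near EC95 followed by isoproterenol to raise cAMP; antagonist potency measured as restoring cAMP signal that NPY suppresses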
T2 sequence (P49146 whole entry): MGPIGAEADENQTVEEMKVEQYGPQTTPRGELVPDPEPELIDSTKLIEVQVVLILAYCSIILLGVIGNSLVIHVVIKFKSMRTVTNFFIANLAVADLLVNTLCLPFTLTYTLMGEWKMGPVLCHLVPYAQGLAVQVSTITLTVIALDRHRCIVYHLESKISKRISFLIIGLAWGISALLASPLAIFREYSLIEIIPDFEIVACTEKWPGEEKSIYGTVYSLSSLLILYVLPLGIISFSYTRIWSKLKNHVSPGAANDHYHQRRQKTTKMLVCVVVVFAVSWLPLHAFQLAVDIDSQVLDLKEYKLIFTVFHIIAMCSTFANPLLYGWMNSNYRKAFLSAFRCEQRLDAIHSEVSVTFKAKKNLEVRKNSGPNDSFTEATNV

BJ [3] = experiment: BJ-TERT fibroblast viability loss – cell-based, RAS-independent, luminescence, dose response (AID 1933); format: functional; settings: Homo sapiens
BJ [4] = experiment: cells; format: functional, cell-based; settings: Homo sapiens
[5] = Luminescence-based counterscreen assay for KLF5 inhibitors: dose response cell-based high throughput screening assay to identify cytotoxic compounds using the IEC-6 intestinal epithelial cell line. [Related pubchem assays: 1700 (Primary screen.), 1834 (Confirmation screen.), 1858 (Summary AID.), 1905 (Counterscreen.)]; format: functional
BJ [6] = experiment: BJ-TERT-LT-ST fibroblast viability loss – cell-based, RAS-independent, luminescence, dose response (AID 1935); format: functional; settings: Homo sapiens;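 note: BJ fibroblasts immortalized with TERT plus LT and ST oncogenes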
[7] = DRD fibroblast viability loss – cell-based, non-viral oncogenic, luminescence, dose response (AID 1934); format: functional; settings: Homo sapiens
Cytochrome P450 3A4 [8] = target: T3, Cytochrome P450 3A4 (Homo sapiens, UniProt P08684);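 note: CYP3A4 tested as one member of a cytochrome P450 panel screen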
T3 sequence (P08684 whole entry): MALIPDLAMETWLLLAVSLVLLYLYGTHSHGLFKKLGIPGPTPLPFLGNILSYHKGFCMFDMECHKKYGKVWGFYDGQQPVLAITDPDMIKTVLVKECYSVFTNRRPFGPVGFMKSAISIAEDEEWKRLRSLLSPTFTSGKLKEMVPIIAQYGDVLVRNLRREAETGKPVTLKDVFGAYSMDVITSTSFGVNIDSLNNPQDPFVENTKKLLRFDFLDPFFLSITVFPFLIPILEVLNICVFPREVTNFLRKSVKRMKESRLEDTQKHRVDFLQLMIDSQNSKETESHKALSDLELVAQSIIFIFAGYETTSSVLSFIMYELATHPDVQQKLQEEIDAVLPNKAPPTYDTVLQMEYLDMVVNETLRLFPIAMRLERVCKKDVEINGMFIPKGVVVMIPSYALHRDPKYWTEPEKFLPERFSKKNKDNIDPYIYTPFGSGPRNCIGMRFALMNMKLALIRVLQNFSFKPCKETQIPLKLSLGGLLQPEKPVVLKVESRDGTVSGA

[9] = target: T4, Mannose-6-phosphate isomerase (Homo sapiens, UniProt P34949); experiment: MPI enzyme activity inhibition – biochemical, fluorescence intensity, coupled assay, primary screen (AID 1209)
T4 sequence (P34949 whole entry): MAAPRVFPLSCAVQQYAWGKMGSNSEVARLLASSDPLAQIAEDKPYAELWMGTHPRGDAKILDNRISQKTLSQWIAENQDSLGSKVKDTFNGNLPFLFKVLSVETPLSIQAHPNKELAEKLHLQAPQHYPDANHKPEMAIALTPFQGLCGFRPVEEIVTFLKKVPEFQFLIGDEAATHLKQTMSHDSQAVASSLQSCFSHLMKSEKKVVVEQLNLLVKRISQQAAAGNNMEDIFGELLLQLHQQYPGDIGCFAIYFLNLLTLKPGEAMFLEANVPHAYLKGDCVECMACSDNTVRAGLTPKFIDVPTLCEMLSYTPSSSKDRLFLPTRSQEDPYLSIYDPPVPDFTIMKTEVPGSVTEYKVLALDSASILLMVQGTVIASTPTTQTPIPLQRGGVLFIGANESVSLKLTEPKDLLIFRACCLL

[10] = target: T4, Mannose-6-phosphate isomerase; experiment: MPI inhibition at elevated mannose 6-phosphate – biochemical, fluorescence intensity, high mannose 6-phosphate, primary screen (AID 1220)
[11] = P. falciparum Dd2 growth inhibitors, dose response, SYBR Green, cherry-picked samples (AID 1159567); format: functional, cell-based
[12] = toxicity to human hepatoma HepG2 cells – cell-based, cherry-picked samples, cytotoxicity control, dose response (AID 1159577); format: functional
[13] = target: Peroxisome proliferator-activated receptor gamma/Nuclear receptor coactivator 2 (Homo sapiens, UniProt P37231); format: functional;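 note: agonist potency for raising coactivator recruitment to the receptor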
[14] = target: Peroxisome proliferator-activated receptor gamma/Nuclear receptor coactivator 1 (Homo sapiens, UniProt P37231); format: functional;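 note: agonist potency as compounds enhance coactivator SRC-1 recruitment to PPARgamma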
Peroxisome proliferator-activated receptor gamma/Nuclear receptor coactivator 1, sequence (P37231 whole entry): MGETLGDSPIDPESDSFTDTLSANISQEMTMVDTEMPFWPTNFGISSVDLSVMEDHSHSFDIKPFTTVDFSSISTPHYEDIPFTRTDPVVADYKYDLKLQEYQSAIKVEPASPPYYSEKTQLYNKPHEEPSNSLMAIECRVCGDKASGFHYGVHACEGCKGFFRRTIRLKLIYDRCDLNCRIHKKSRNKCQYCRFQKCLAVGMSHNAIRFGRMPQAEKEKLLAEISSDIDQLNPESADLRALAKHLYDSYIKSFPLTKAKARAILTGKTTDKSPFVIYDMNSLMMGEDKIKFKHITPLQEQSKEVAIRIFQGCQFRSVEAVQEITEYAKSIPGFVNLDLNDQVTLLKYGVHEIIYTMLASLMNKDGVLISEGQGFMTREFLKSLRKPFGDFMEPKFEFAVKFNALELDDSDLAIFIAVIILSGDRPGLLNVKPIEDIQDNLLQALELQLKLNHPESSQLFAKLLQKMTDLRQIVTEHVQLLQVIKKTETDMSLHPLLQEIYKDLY
Peroxisome proliferator-activated receptor gamma/Nuclear receptor coactivator 1, sequence (Q15788 whole entry, further chain): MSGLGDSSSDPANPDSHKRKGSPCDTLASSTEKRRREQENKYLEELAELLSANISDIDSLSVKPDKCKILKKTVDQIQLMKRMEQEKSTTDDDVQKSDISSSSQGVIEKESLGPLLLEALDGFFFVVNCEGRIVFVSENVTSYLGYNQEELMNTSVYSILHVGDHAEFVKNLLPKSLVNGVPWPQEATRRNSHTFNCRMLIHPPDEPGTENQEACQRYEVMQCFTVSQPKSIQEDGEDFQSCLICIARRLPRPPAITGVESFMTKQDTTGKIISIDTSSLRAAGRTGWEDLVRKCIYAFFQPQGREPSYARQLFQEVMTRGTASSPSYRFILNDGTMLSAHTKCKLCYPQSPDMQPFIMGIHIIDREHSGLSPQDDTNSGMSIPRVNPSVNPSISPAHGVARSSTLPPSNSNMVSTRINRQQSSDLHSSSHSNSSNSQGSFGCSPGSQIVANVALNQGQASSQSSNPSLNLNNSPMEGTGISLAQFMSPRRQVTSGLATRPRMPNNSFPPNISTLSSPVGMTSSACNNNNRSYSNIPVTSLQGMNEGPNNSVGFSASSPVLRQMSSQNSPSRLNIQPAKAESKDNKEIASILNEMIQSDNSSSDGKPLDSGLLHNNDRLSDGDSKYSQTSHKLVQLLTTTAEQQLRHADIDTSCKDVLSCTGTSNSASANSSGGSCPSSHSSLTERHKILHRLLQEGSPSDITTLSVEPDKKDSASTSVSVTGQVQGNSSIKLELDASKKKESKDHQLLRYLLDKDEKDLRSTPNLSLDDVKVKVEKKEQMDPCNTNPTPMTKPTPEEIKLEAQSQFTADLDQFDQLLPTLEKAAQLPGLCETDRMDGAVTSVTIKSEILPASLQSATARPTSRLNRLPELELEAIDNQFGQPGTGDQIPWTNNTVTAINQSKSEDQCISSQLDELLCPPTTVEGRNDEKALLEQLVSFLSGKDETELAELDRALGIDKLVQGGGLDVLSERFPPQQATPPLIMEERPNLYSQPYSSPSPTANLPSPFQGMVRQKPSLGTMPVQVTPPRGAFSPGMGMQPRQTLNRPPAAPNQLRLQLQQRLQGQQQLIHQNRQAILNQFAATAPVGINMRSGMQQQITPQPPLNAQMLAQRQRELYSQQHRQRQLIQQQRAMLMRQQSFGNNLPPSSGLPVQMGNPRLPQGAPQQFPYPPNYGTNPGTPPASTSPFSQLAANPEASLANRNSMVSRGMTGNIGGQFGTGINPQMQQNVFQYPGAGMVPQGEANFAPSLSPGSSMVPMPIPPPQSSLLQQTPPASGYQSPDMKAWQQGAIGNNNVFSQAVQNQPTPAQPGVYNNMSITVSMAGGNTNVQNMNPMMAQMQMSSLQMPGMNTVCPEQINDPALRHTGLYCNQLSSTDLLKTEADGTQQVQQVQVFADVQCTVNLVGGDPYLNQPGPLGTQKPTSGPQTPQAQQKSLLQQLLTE

[15] = target: Peroxisome proliferator-activated receptor gamma/Nuclear receptor coactivator 3 (Homo sapiens, UniProt P37231); format: functional;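 note: agonist potency for raising coactivator recruitment to the receptor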
Peroxisome proliferator-activated receptor gamma/Nuclear receptor coactivator 3, sequence (P37231 whole entry): as the sequence (P37231 whole entry) above
Peroxisome proliferator-activated receptor gamma/Nuclear receptor coactivator 3, sequence (Q9Y6Q9 whole entry, further chain): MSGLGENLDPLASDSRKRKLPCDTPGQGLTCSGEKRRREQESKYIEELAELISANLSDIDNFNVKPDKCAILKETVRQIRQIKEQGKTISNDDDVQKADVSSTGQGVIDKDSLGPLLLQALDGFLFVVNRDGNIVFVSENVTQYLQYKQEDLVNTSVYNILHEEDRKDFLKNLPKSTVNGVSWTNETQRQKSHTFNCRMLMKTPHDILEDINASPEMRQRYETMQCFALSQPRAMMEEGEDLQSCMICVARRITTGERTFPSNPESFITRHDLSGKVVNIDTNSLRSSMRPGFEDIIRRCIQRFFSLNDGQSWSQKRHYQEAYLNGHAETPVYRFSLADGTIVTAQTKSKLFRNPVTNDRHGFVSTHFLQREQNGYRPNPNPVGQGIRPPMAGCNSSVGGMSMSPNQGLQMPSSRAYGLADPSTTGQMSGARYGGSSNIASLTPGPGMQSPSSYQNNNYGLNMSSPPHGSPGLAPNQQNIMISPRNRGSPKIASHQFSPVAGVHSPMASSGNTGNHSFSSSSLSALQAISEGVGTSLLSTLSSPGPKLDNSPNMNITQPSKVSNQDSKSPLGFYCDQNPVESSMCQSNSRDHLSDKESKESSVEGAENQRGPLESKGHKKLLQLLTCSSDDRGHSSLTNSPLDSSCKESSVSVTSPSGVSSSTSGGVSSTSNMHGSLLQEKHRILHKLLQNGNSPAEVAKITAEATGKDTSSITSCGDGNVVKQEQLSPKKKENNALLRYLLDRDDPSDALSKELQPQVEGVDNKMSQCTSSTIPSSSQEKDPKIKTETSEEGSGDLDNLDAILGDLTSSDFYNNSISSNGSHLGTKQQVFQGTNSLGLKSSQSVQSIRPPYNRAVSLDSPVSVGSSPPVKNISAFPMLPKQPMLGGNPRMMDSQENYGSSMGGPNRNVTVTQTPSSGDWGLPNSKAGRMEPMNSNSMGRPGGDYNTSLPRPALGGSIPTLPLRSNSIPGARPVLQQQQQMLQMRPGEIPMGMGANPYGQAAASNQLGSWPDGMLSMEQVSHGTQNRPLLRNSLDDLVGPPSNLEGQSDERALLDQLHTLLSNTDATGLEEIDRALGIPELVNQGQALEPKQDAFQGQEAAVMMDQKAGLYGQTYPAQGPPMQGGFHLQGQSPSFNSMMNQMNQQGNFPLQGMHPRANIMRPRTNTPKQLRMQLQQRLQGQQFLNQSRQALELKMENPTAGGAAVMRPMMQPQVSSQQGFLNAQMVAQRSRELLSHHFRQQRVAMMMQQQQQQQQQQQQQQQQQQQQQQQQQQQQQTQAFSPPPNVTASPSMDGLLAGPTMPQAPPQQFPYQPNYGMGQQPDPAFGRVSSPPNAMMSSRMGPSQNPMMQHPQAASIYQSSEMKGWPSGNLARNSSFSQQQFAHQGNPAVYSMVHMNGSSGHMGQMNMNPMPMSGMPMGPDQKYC

[16] = Trypanosoma cruzi growth suppression in host cells – NIH3T3 host cells, beta-gal luminescence, confirmation (AID 2044); format: functional, cell-based;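 note: intracellular parasites grown in NIH/3T3 mouse fibroblasts as host cells; luminescent beta-galactosidase reporter signal from transgenic T. cruzi replicating inside host cells; inhibitors lower the luminescence signal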
[17] = NIH3T3 cell viability loss – ATP luminescence, mouse fibroblasts, counter-screen, dose response (AID 2010); format: functional, cell-based;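 note: cells exposed to compound for about 90 hours before reading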
Cytochrome P450 2C19 [18] = target: T5, Cytochrome P450 2C19 (Homo sapiens, UniProt P33261); experiment: qHTS Assay for Inhibitors and Substrates of Cytochrome P450 2C19. [Related pubchem assays: 410 ]; format: ADME; settings: read-out: Potency
T5 sequence (P33261 whole entry): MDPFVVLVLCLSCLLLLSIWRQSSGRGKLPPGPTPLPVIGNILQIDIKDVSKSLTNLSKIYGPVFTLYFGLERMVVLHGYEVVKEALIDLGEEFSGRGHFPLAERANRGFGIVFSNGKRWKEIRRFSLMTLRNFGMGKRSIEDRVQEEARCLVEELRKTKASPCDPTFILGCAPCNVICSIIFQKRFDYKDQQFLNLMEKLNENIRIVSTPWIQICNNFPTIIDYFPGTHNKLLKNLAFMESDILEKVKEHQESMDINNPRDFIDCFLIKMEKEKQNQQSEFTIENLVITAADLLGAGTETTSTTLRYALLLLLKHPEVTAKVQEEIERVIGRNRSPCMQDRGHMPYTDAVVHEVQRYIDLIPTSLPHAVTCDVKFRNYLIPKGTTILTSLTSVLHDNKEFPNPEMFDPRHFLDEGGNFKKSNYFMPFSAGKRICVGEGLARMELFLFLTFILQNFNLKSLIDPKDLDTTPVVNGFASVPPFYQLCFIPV

Cytochrome P450 2C19 [19] = target: T5, Cytochrome P450 2C19; experiment: Cytochrome panel assay with activity outcomes. Panel member name: p450-cyp2c19 Compounds with AC50 equal or less than 10 uM are considered active; format: functional; settings: read-out: AC50
Cytochrome P450 2C9 = Cytochrome P450 2C9 (Homo sapiens, UniProt P11712)
Cytochrome P450 3A4 [20] = target: T3, Cytochrome P450 3A4; remark: listed apart in the source
[21] = luciferase reporter signal suppression in cells – H4 neuroglioma cells, luminescence, dose response (AID 1990); format: functional, cell-based
[22] = Luminescence Cell-Based Dose Response HTS to Identify Inhibitors of 5'UTR Stem-Loop Driven Prion Protein mRNA Translation in H4 Neuroglioblastoma Cells. [Related pubchem assays: 1827 (Project Summary), 1813 (Primary HTS)]; format: functional
[23] = target: Luciferin 4-monooxygenase (Photinus pyralis, UniProt P08659); experiment: inhibition of purified Photinus pyralis luciferase – biochemical, luminescence, dose response (AID 1891)
[24] = Luminescence Cell-Based Dose Confirmation HTS to Identify Inhibitors of Platelet Dense Granule Release. [Related pubchem assays: 1663 (Primary HTS), 1678 (Summary of Project)]; format: functional
[25] = blockers of bursicon-stimulated LGR2 cAMP reporter – cell-based, HEK293, CRE-luciferase reporter, cherry pick, set 2, dose response (AID 743343); format: functional;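 note: transfected cells were stimulated with diluted bursicon conditioned medium after compound addition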
[26] = blockade of melanocortin 4 receptor signaling – cell-based, plate reader, cherry pick, counter-screen for LGR2 antagonist project, dose response (AID 743444); format: functional;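 note: transfected HEK 293 cells stimulated with alpha-MSH peptide; potency of inhibitors of the alpha-MSH evoked signal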
[27] = viability loss in HEK293 cells – cell-based, plate reader, cherry-picked samples, cytotoxicity control, dose response (AID 743446); format: functional
[28] = target: T6, Histone-lysine N-methyltransferase NSD2 (Homo sapiens, UniProt O96028); format: biochemical
T6 sequence (O96028 whole entry): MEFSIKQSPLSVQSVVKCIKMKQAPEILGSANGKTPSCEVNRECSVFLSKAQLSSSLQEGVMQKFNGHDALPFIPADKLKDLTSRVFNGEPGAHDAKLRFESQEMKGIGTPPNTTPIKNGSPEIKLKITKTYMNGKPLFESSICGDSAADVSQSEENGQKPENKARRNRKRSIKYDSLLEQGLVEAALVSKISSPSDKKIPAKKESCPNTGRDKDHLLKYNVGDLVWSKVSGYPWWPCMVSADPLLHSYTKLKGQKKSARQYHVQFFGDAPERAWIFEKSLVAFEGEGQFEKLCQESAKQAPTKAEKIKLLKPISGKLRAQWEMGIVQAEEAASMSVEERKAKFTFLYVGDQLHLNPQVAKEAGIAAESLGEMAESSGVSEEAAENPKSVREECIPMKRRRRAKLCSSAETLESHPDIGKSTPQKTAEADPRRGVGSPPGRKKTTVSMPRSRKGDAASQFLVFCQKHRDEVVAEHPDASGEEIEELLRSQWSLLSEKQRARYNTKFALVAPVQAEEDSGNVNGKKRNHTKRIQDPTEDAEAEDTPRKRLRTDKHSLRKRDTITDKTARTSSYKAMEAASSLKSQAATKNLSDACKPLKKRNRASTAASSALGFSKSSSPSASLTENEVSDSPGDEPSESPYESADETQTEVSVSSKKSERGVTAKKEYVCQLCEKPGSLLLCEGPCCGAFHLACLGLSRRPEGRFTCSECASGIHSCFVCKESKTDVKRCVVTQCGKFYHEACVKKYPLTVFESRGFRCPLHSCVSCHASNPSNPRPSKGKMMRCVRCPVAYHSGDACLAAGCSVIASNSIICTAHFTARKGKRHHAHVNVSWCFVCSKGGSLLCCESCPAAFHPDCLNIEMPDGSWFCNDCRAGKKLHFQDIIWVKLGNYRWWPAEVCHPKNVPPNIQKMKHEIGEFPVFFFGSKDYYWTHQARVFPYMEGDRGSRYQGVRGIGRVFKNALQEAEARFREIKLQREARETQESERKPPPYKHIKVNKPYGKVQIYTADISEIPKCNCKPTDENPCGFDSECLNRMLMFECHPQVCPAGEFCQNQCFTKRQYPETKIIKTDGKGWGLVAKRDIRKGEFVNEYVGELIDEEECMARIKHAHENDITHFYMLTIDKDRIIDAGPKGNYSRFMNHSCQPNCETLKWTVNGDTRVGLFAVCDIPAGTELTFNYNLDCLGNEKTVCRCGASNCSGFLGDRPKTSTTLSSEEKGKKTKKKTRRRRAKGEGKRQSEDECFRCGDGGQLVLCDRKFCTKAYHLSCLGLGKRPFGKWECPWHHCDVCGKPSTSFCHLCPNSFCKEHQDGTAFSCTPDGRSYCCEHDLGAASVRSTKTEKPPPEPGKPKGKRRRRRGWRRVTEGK

CCC(Oc1ccc2c(=O)c(-c3ccccc3OC)coc2c1)C(=O)OCc1ccccc1 (centres undefined)
IC50 [1]: 11.5 µM (not active)
IC50 [2]: 4.12 µM (active)

COC(=O)c1ccc(Oc2cc(C)nc(-n3nc(C)cc3C)n2)cc1
EC50 (BJ [3]): 0.69 µM (active)
EC50 (BJ [4]): 0.851 µM (active)
IC50 [5]: 34.2 µM (not active)
EC50 (BJ [6]): 0.699 µM (active)
EC50 [7]: 2.25 µM (active)
AC50 (Cytochrome P450 3A4 [8]): 39.8 µM (inconclusive)

CCOc1cc2c(C#N)c(N3CCOCC3)nc(N)c2c(N)n1
IC50 [9]: > 50 µM (not active)
IC50 [10]: > 50 µM (not active)

COc1ccc(S(=O)(=O)N(C)C[C@H]2Oc3c(NC(=O)Nc4ccccc4)cccc3C(=O)N([C@@H](C)CO)C[C@H]2C)cc1
AC50 [11]: 4.8 µM (active)
AC50 [12]: 33.8 µM (active)

CCO[C@@H]1OC(C(=O)N2CCN(Cc3ccc4c(c3)OCO4)CC2)=C[C@H](c2csc3ccccc23)[C@H]1CCCO
EC50 [13]: > 79.4 µM (not active)
EC50 [14]: > 79.4 µM (not active)
EC50 [15]: > 79.4 µM (not active)

O=C(NCCc1c[nH]c2ccccc12)c1cc([N+](=O)[O-])cc([N+](=O)[O-])c1
EC50 [16]: < 0.1 µM (active)
EC50 [17]: > 60 µM (not active)
EC50 (cells): 0.264 µM (active)

CCOC(=O)OCC1OC(CCc2ccccc2)CCC1Oc1ccc(OC)cc1 (centres undefined)
AC50 (Cytochrome P450 2C19 [18]): 2.51 µM (inconclusive)

COc1ccc(OC)c(Nc2cc(C)nc3nc(C)nn23)c1
IC50 [5]: 13 µM (not active)

Cc1ccc2nc(N(CCCN(C)C)C(=O)c3ccco3)sc2c1
EC50 [16]: < 0.1 µM (active)
EC50 [17]: > 60 µM (not active)
EC50 (cells): 0.036 µM (active)

N#Cc1c(-c2ccccc2)cc(-c2ccccc2)nc1SCc1nnc(-c2ccccc2)o1
EC50 [13]: 25.1 µM (not active)
EC50 [14]: 26.1 µM (not active)
EC50 [15]: 27.6 µM (not active)
AC50 (Cytochrome P450 2C19 [19]): 1.41 µM (inconclusive)
AC50 (Cytochrome P450 3A4 [8]): 7.08 µM (inconclusive)
AC50 (Cytochrome P450 2C9): 0.251 µM (inconclusive)

S=C(NCCc1ccccc1)N/N=C/c1ccccc1Cl
IC50 [1]: 5.02 µM (active)
IC50 [2]: 5.07 µM (active)

COc1ccc(/C=C/C(=O)c2ccc(OC)cc2O)cc1
AC50 (Cytochrome P450 2C19 [18]): 0.398 µM (inconclusive)

Cc1cc(Cl)ccc1Oc1ncnc2oc(-c3ccccc3)cc12
EC50 [13]: > 79.4 µM (not active)
EC50 [14]: > 79.4 µM (not active)
EC50 [15]: > 79.4 µM (not active)
AC50 (Cytochrome P450 3A4 [20]): inconclusive

O=C(O)/C=C/C(=O)Nc1ccc2c(c1)NC(=O)CO2
IC50 [9]: > 50 µM (not active)
IC50 [10]: > 50 µM (not active)

Clc1ccccc1/C=C/c1nc(-c2ccccn2)no1
EC50 [21]: 3.76 µM (active)
EC50 [22]: 5.54 µM (active)
EC50 [23]: 1.87 µM (active)
EC50 [24]: 6.25 µM (active)
IC50 [5]: > 39.8 µM (not active)
AC50 [25]: 2 µM (active)
AC50 [26]: 2.74 µM (active)
AC50 [27]: > 52 µM (inactive)

C(=N/Nc1cc(N2CCOCC2)nc(N2CCOCC2)n1)/c1ccccc1
IC50 [9]: > 50 µM (not active)
IC50 [10]: > 50 µM (not active)
AC50 [28]: > 20 µM (inactive)

O=C(COC(=O)/C=C/c1ccc(Cl)cc1)Nc1ccccc1-c1ccccc1
IC50 [1]: 6.13 µM (active)
IC50 [2]: 8.06 µM (active)

Cc1cc(C(=O)N(C)CC2CCCN(CCc3ccc(F)cc3)C2)c(C)o1 (centres undefined)
EC50 [16]: < 0.1 µM (active)
EC50 [17]: > 60 µM (not active)
EC50 (cells): 0.279 µM (active)
